From ChEMBL document CHEMBL1128817, “Synthesis of bisindolylmaleimide macrocycles” (Bioorg Med Chem Lett, 1995)

Columns and labels:
[1] = Selectivity ratio of IC50 of PKCalpha to PKCbeta II
[2] = target: Protein kinase C beta type (Homo sapiens, UniProt P05771); assay: Inhibition of Protein kinase C beta 2
[3] = Selectivity ratio of IC50 of PKA to PKC
Protein kinase C (PKC) = assay: Inhibition of rat brain PKC

Sequence of Protein kinase C beta type (P05771 whole entry): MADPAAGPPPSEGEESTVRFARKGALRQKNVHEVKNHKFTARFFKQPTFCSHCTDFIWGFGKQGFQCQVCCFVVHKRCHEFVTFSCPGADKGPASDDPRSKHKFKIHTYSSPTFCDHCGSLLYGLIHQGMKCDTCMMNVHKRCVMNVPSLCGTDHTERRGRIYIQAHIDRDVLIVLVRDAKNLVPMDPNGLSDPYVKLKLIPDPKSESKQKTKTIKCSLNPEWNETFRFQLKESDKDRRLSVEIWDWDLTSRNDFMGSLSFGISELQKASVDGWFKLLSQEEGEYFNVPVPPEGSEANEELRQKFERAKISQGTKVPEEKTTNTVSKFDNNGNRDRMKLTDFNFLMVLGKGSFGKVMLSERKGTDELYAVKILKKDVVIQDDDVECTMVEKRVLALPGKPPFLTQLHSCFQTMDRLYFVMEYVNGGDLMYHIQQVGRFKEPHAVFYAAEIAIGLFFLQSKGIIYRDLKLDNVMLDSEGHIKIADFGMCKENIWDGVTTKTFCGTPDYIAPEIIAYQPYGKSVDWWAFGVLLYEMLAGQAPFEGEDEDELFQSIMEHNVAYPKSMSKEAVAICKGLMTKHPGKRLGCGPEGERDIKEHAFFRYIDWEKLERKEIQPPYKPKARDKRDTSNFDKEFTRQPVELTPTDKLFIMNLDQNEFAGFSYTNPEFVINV

Ratio [1]: 25 | IC50 [2]: 0.27 µM | Ratio [3]: > 10000 | IC50 (Protein kinase C (PKC)): 6.4 µM
Compound: O=C1NC(=O)C2=C1c1cn(c3ccccc13)CCCOC(CO)CCn1cc2c2ccccc21 (centres undefined)
